Data on 11 molecules can be found in patent US10858344B2, “Hydantoin containing deoxyuridine triphosphatase inhibitors” (CV6 Therapeutics (NI) Limited, priority 2016, dated 2020).

Chain of recombinant human deoxyuridine nucleotidohydrolase (dUTPase) (P33316 other isoform, or with tags, fused parts or gaps): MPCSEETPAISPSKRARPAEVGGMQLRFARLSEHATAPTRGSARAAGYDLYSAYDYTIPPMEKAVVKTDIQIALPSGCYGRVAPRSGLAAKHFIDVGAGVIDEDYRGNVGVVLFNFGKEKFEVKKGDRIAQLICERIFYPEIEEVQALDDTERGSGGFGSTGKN

The first test addresses recombinant human deoxyuridine nucleotidohydrolase (dUTPase) (Homo sapiens (Human), UniProt P33316). The test is described as follows: fluorescence-based dUTPase inhibition assay. It counts as biochemical. The note with it: mean over three concentrations, typically 100, 50 and 25 μmol/L, compared to in-run positive control. The source says:
Recombinant human deoxyuridine nucleotidohydrolase (dUTPase) is expressed and purified as described in Ladner R D, Carr S A, Huddleston M J, McNulty D E, Caradonna S J. J Biol Chem. 1996 Mar. 29; 271(13):7752-7. All drugs stocks are aliquoted and diluted as appropriate prior to use. The oligonucelotide primer, templates and fluorophore- and quencher-labeled detection probes are synthesized by Integrated DNA Technologies (Coralville, Iowa), subjected to polyacrylamide gel electrophoresis purification and reconstituted in Omnipur sterile nuclease-free water (EMD Chemicals USA, Gibbstown N.J.) at a stock concentration of 100 μmol/L. The two non-emissive (dark) quenching molecules incorporated into the detection probes include the Iowa black fluorescein quencher (IBFQ; absorption max 531 nm) and ZEN (non-abbreviation; absorption max 532 nm). The fluorescent label utilized is 6-FAM (5′-carboxyfluorescein; excitation max.=494 nm, emission max.=520 nm). Probes are further diluted to a working stock of 10 μmol/L and aliquoted to avoid repeated freeze/thaw cycles. AmpliTaq Gold DNA Polymerase, GeneAmp 10×PCR Buffer 2, MgCl2 and MicroAmp Optical 96-well Reaction Plates are purchased from Applied Biosystems (Carlsbad, Calif.). dNTPs are purchased individually at stock concentrations of 100 mmol/L from New England Biolabs at HPLC-certified >99% purity (Ipswich, Mass.).
Reaction mixtures contained primer, probe and template at an equimolar final concentration of 0.4 μmol/L. Magnesium chloride (MgCl2) is included at a final concentration of 2 mmol/L. Non-limiting dNTPs are included in the reaction mix in excess at a final concentration of 100 μmol/L (dUTP/dTTP is excluded). AmpliTaq Gold DNA polymerase is added at 0.875 U/reaction, 2.5 μl of 10×PCR buffer 2 added and nuclease-free ddH2O added to a final reaction volume of 25 μl. For dUTP inhibition analysis, the volume of ddH2O is further modified to accommodate an additional 1 μl of dUTPase (10 ng/μl) and 1 μl of inhibitor or DMSO control. Thermal profiling and fluorescence detection is performed using a customized thermal program on board a Roche Lightcycler LC480 Instrument II. For analysis of dNTPs, the thermal profile consisted of an 8 min 37° C. step followed by a 10 min 95° C. step to ‘hot-start’ the Taq polymerase and a primer extension time of up to 30 min at 60° C. Raw fluorescence spectra for 6-FAM is measured at specified time intervals to follow assay progression on board a Roche LightCycler 480 Software Version 1.5 and exported and analyzed in Microsoft Excel (Microsoft, Redmond Wash.) and Prism (GraphPad Software, La Jolla Calif.). Fluorescence values for blank reactions (limiting dNTP omitted) are subtracted to give normalized fluorescence units (NFU) to account for background fluorescence.
Test compounds are screened in a fluorescence-based assay. The assay employs a DNA polymerase-based approach utilizing an oligonucleotide template with 3 distinct regions: a 3′ primer binding region, a mid-template dUTP/thymidine triphosphate (TTP) detection region and a 5′ 6-[…] (FAM)-labeled probe binding region that incorporates a black hole quenching moiety. During the reaction, the probe and primer hybridize to the oligonucleotide template to form the template:primer:probe complex. When Taq polymerase binds to the primer in the TPP complex and dUTP is present, successful extension of the nascent strand occurs and the inherent 5′ to 3′ exonuclease activity of Taq polymerase cleaves and displaces the 6-FAM-labeled probe in a 5′ to 3′ direction, releasing the 6-FAM fluorophore from its proximity to the three quenchers. This displacement effectively disrupts the Förster resonance energy transfer (FRET) and the resulting fluorescence detected upon excitation is directly proportional to the amount of the dUTP available in the assay for incorporation. […]
In the case of `C[C@@H](NS(=O)(=O)CCCOCN1CC(=O)NC1=O)c1cccc(OCC2CC2)c1` [Example 115, (R)—N-(1-(3-(cyclopropylmethoxy)phenyl)ethyl)-3-((2,4-dioxoimidazolidin-1-yl)methoxy)propane-1-sulfonamide], the “% relative inhibition vs. positive control” value amounted to 164%.

As for `CC(C)COc1cc([C@@H](C)NS(=O)(=O)CCCOCN2CC(=O)NC2=O)ccc1F` [Example 116, (R)-3-((2,4-dioxoimidazolidin-1-yl)methoxy)-N-(1-(4-fluoro-3-isobutoxyphenyl)ethyl)propane-1-sulfonamide], the “% relative inhibition vs. positive control” value is recorded as 173%.

As for `O=C1CN(COCCCS(=O)(=O)NC2(c3ccc(F)c(OCC4CC4)c3)CC2)C(=O)N1` [compound 120, N-(1-(3-(cyclopropylmethoxy)-4-fluorophenyl)cyclopropyl)-3-((2,4-dioxoimidazolidin-1-yl)methoxy)propane-1-sulfonamide], the “% relative inhibition vs. positive control” value was found to be 172%.

Take `CC1(C)C(=O)NC(=O)N1C/C=C/CCS(=O)(=O)NC1(c2ccc(F)c(OCC(F)F)c2)CC1` [compound 121, (E)-N-(1-(3-(2,2-difluoroethoxy)-4-fluorophenyl)cyclopropyl)-5-(5,5-dimethyl-2,4-dioxoimidazolidin-1-yl)pent-3-ene-1-sulfonamide]: the “% relative inhibition vs. positive control” value is recorded as 21%. On the same count and under the same terms, the figure for `C[C@H]1C(=O)NC(=O)N1C/C=C/CCS(=O)(=O)NC1(c2ccc(F)c(OCC(C)(C)O)c2)CC1` [compound 122, (S,E)-N-(1-(4-fluoro-3-(2-hydroxy-2-methylpropoxy)phenyl)cyclopropyl)-5-(5-methyl-2,4-dioxoimidazolidin-1-yl)pent-3-ene-1-sulfonamide] is 40%; for `C[C@H]1C(=O)NC(=O)N1COCCCS(=O)(=O)NC1(c2ccc(F)c(OCC3CC3)c2)CC1` [compound 124, (S)—N-(1-(3-(cyclopropylmethoxy)-4-fluorophenyl)cyclopropyl)-3-((5-methyl-2,4-dioxoimidazolidin-1-yl)methoxy)propane-1-sulfonamide] it is 153%; for `C[C@@H](NS(=O)(=O)CC/C=C/CC1CC(=O)NC1=O)c1ccc(F)c(OCC2CC2)c1` (stereo partly drawn) [compound 125, (E)-N—((R)-1-(3-(cyclopropylmethoxy)-4-fluorophenyl)ethyl)-5-(2,5-dioxopyrrolidin-3-yl)pent-3-ene-1-sulfonamide] it is 71%. Still for that read-out and setting: the figure for `C[C@@H](NS(=O)(=O)CCCCCC1CC(=O)NC1=O)c1ccc(F)c(OCC2CC2)c1` (stereo partly drawn) [compound 126, N—((R)-1-(3-(cyclopropylmethoxy)-4-fluorophenyl)ethyl)-5-(2,5-dioxopyrrolidin-3-yl)pentane-1-sulfonamide] is 152%.

For the molecule `C[C@H](NS(=O)(=O)CCCCCN1CC(=O)NC1=O)c1ccc(F)c(OCCC2CC2)c1` [compound 128, (S)—N-(1-(3-(2-cyclopropylethoxy)-4-fluorophenyl)ethyl)-5-(2,4-dioxoimidazolidin-1-yl)pentane-1-sulfonamide], the “% relative inhibition vs. positive control” value is 53%.

A further test concerns colorectal (HCT116 and SW620) cell line models. Nature of the test: MTS growth inhibition assay. It counts as cell-based. The conditions noted are these: 5-FU between 0 and 100 μmol/L; both colorectal cancer cell lines. The protocol: The Cell Titer AQueous MTS assay (Promega) is carried out according to the manufacturers guidelines. […] The combination effect is determined by the combination index (CI) method utilizing Calcusyn software (Biosoft, Ferguson, Mo.). Fraction affected (FA) is calculated from the percent growth inhibition: FA=[…]. CI values <1, synergism; 1-1.2, additive and >1.2, antagonism.
MTS growth inhibition assays are performed to evaluate the effectiveness of the test compounds alone and in combination with the fluoropyrimidine thymidylate synthase (TS) inhibitor 5-fluorouracil (5-FU) at inhibiting the growth of colorectal (HCT116 and SW620) cell line models. […] Simultaneous treatment with increasing concentrations of 5-FU and a test compound at fixed concentrations of 25 μmol/L is determined.
In general terms: Tetrazolium dyes change colour on reduction, which living cells bring about.
`O=c1[nH]cc(F)c(=O)[nH]1` [5-FU, 5-fluorouracil]: the growth inhibition entry was “dose-dependent increases in growth inhibition”.

The subject of another test is colorectal (HCT116), breast (MCF-7) and non-small cell lung (H1299, A549, H358 and H460) cell line models. Nature of the test: Colony forming assay. Type of test: cell-based. The conditions noted are these: FUdR between 0.5 and 2.5 μmol/L; all cell lines evaluated. On the procedure:
Colony forming assay showing the ability of colon (SW620, HCT116), non-small cell lung (A549, H460, H1299 and H358) and breast (MCF7) cancer cells to survive and proliferate following transient 24 hour exposure to test compounds, FUdR and combinations are determined. Specifically, cells are seeded at densities between 50 and 100 cells/well in 24-well plates. Twenty-four hours later, cells are treated with increasing concentrations of a rtest compound, a fixed dose of FUdR and combinations of these. After 24 hours, drug is removed, cells are rinsed and allowed to outgrow for 10-14 days. At the conclusion of the outgrowth, cells are fixed in 60% ice cold methanol and stained with 0.1% crystal violet, scanned and counted. Data is presented as percentage of untreated controls (mean±SD). Fraction affected and combination indexes are calculated according to the method of Chou and Talalay where <1 is indicative of a synergistic drug interaction.
Colony forming assays are performed to evaluate the effectiveness of test compounds alone and in combination with the fluoropyrimidine thymidylate synthase (TS) inhibitor fluorodeoxyuridine (FUdR) at reducing cancer cell viability in colorectal (HCT116), breast (MCF-7) and non-small cell lung (H1299, A549, H358 and H460) cell line models. […]
As for `O=c1[nH]c(=O)n([C@H]2C[C@H](O)[C@@H](CO)O2)cc1F` [FUdR, fluorodeoxyuridine], the colonies formed entry was “dose-dependent decreases in colonies formed”.
